The source made the active and inactive calls. The rule behind the calls is not given here.
Columns and labels:
Escherichia coli [1] = assay: Antibacterial activity against Escherichia coli ATCC25922 infected in pyelonephritis C57BL/6 mouse model assessed as saturated bacterial clearance at >=5 mg/kg, iv qd for 3 days administered at 2 days post-infection; type: functional, organism-based; details: time 3.0 day
Acinetobacter baumannii = assay: Antibacterial activity against carbapenem-resistant Acinetobacter baumannii 882 assessed as inhibition of bacterial growth incubated for 24 hrs by broth microdilution method; type: functional
Staphylococcus aureus [2] = assay: Antibacterial activity against methicillin-resistant Staphylococcus aureus ATCC33591 assessed as post-antibiotic effect at 0.25 ug/ml incubated for 1 hr followed by washing and incubation in MHB medium for 10 hrs and later cultured on agar plate for overnight; type: functional; details: dose 0.25 µg/ml
Escherichia coli [3] = assay: Antibacterial activity against Escherichia coli ATCC25922 infected in pyelonephritis C57BL/6 mouse model assessed as recovery of white blood cells count in blood at 3 to 10 mg/kg, iv qd for 3 days administered at 2 days post-infection; type: functional, organism-based; details: dose 3-10 mg/kg, time 3.0 day
Escherichia coli [4] = assay: Antibacterial activity against Escherichia coli ATCC25922 infected in pyelonephritis C57BL/6 mouse model assessed as decrease in MPO activity in kidney at 3 to 10 mg/kg, iv qd for 3 days administered at 2 days post-infection; type: functional, organism-based; details: dose 3-10 mg/kg, time 3.0 day
[5] = molecular target: T1, Solute carrier family 22 member 2 (Homo sapiens, UniProt O15244); assay: Substrate activity at human OCT2 transfected in HEK293 cells assessed as increase in intracellular drug content at 100 uM measured after 5 mins; type: ADME, cell-based; details: hek293, 5 min
T1 sequence (O15244 whole entry): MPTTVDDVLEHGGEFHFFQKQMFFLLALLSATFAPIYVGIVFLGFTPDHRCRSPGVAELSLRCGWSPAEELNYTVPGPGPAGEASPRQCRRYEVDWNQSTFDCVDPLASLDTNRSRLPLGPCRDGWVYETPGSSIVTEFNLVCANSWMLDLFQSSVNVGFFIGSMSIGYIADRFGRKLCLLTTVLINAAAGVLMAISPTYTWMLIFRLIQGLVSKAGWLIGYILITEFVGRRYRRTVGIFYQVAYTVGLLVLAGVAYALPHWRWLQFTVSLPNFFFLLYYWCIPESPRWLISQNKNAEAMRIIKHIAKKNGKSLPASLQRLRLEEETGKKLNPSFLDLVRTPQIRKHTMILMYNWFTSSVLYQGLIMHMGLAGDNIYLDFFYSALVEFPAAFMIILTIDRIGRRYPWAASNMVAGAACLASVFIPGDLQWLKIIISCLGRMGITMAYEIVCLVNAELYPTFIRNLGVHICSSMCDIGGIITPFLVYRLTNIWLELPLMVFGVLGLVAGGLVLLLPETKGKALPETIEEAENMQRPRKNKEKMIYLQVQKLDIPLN

[6] = Tmax in Sprague-Dawley rat at 10 mg/kg, po; type: ADME, organism-based; details: in vivo
Escherichia coli [7] = assay: Antibacterial activity against Escherichia coli ATCC25922 infected in pyelonephritis C57BL/6 mouse model assessed as decrease in IL-6 level in kidney at 3 to 10 mg/kg, iv qd for 3 days administered at 2 days post-infection by ELISA; type: functional, organism-based; details: dose 3-10 mg/kg, time 3.0 day
Escherichia coli [8] = assay: Antibacterial activity against Escherichia coli ATCC25922 infected in pyelonephritis C57BL/6 mouse model assessed as decrease in IL-1 beta level in kidney at 3 to 10 mg/kg, iv qd for 3 days administered at 2 days post-infection by ELISA; type: functional, organism-based; details: dose 3-10 mg/kg, time 3.0 day
[9] = Observed clearance in Sprague-Dawley rat at 5 mg/kg, iv; type: ADME, organism-based; details: in vivo
Cell membrane [10] = assay: Disruption of cell membrane in Escherichia coli ATCC25922 assessed as disrupted, furrowed, crumpled cell envelope at 0.125 to 0.5 ug/ml incubated for 2 hrs by propidium iodide staining based confocal laser scanning microscopy; type: subcellular; details: dose 0.125-0.5 µg/ml
Cell membrane [11] = assay: Disruption of cell membrane in methicillin-resistant Staphylococcus aureus ATCC33591 assessed as decrease in intracellular pH at 0.125 ug/ml incubated for 30 mins by cFDA-SE probe based fluorescence analysis; details: dose 0.125 µg/ml
Staphylococcus aureus [12] = assay: (§1) Antibacterial activity against methicillin-resistant Staphylococcus aureus ATCC33591 infected in systemic intraperitoneal infection Kunming mouse model assessed as decrease in inflammation and neutrophil infiltration in liver at 5 mg/kg, ip treated at 1 hr post-infection and measured after 7 days by Hematoxylin-Eosin staining based analysis; type: functional, organism-based; details: time 7.0 day
[13] = tested on: Mesomycoplasma hyopneumoniae; assay: Anti-mycoplasma activity against Mycoplasma hyopneumoniae MH-LH assessed as inhibition of bacterial growth incubated for 6 to 7 days by broth microdilution method; type: functional; details: time 6-7 day
[14] = Toxicity against methicillin-resistant Staphylococcus aureus ATCC33591 infected in systemic intraperitoneal infection Kunming mouse model assessed as mild liver damage at 20 mg/kg, ip treated at 1 hr post-infection and measured after 7 days by Hematoxylin-Eosin staining based analysis; type: organism-based; details: in vivo, 168 h, time 7 day
Salmonella enterica = assay: Antibacterial activity against Salmonella enterica ATCC 14028 assessed as inhibition of bacterial growth incubated for 24 hrs by broth microdilution method; type: functional
Cell membrane [15] = assay: Disruption of cell membrane in Escherichia coli ATCC25922 assessed as decrease in intracellular ATP content at 0.125 to 0.25 ug/ml incubated for 30 mins by luminescence based analysis; details: dose 0.125-0.25 µg/ml
Cell membrane [16] = assay: Disruption of cell membrane in Escherichia coli ATCC25922 assessed as induction of cell death by measuring increase in propidium iodide fluorescence intensity at 0.5 ug/ml incubated for 2 hrs by bright field microscopy; type: subcellular; details: dose 0.5 µg/ml
[17] = Cytotoxicity against human A549 cells assessed as reduction in cell viability incubated for 24 hrs by CCK8 assay; type: toxicity, cell-based
Staphylococcus aureus [18] = assay: Antibacterial activity against methicillin-resistant Staphylococcus aureus ATCC 33591 assessed as inhibition of bacterial growth incubated for 24 hrs by broth microdilution method; type: functional
Staphylococcus aureus [19] = assay: as §1, with “kidney” for “liver”; type: functional, organism-based; details: time 7.0 day
Staphylococcus aureus [20] = assay: Antibiofilm activity against methicillin-resistant Staphylococcus aureus ATCC33591 assessed as eradication of preformed biofilms incubated for 24 hrs with preformed biofilms by crystal violet staining based analysis; type: functional, organism-based; details: dose 0.125-0.5 µg/ml
Klebsiella pneumoniae = assay: Antibacterial activity against multidrug-resistant Klebsiella pneumoniae 893 assessed as inhibition of bacterial growth incubated for 24 hrs by broth microdilution method; type: functional
Staphylococcus aureus [21] = assay: Antibacterial activity against methicillin-resistant Staphylococcus aureus ATCC33591 infected in systemic intraperitoneal infection Kunming mouse model assessed as decrease in bacterial colonies in kidneys administered intraperitoneally at 1 hr post-infection and measured after 7 days; type: functional, organism-based; details: dose 5-20 mg/kg, route ip, time 7.0 day
[22] = Drug uptake in Sprague-Dawley rat liver at 5 mg/kg, iv measured for 6 hrs by LC-MS/MS analysis; type: ADME, organism-based; details: in vivo
Pseudomonas aeruginosa = assay: Antibacterial activity against multidrug-resistant Pseudomonas aeruginosa 126 assessed as inhibition of bacterial growth incubated for 24 hrs by broth microdilution method; type: functional
Escherichia coli [23] = assay: Antibiofilm activity against Escherichia coli ATCC25922 assessed as eradication of preformed biofilms incubated for 24 hrs with preformed biofilms by crystal violet staining based analysis; type: functional, organism-based; details: dose 0.125-0.5 µg/ml
Staphylococcus aureus [24] = assay: Antibacterial activity against methicillin-resistant Staphylococcus aureus 171 assessed as inhibition of bacterial growth incubated for 24 hrs by broth microdilution method; type: functional

**Q.** What does the source list for `C=C[C@]1(C)C[C@@H](OC(=O)CSc2nc3cc[n+](Cc4ccc(C)cc4)cc3[nH]2)[C@]2(C)[C@H](C)CC[C@]3(CCC(=O)[C@H]32)[C@@H](C)[C@@H]1O.[Br-]`?
**A.** Activity (Escherichia coli [1]): Active; MIC (Acinetobacter baumannii): 4 µg/mL; PAE (Staphylococcus aureus [2]): 1.53 h; Activity (Escherichia coli [3]): Active; Activity (Escherichia coli [4]): Active; Activity [5]: Active; Tmax [6]: 30 min; Activity (Escherichia coli [7]): Dose-dependent-effect; Activity (Escherichia coli [8]): Dose-dependent-effect; clearance [9]: 5.04 mL/min/kg; Activity (Cell membrane [10]): Active; Activity (Cell membrane [11]): Active; Activity (Staphylococcus aureus [12]): Active; Nearly Restoration Of Normal Histology Observed; MIC [13]: < 0.04 µg/mL; Activity [14]: Toxic; MIC (Salmonella enterica): < 1 µg/mL; Activity (Cell membrane [15]): Active; Activity (Cell membrane [16]): Active; CC50 at 24 h [17]: > 100 µM; MIC (Staphylococcus aureus [18]): < 1 µg/mL; Activity (Staphylococcus aureus [19]): Active; Nearly Restoration Of Normal Histology Observed; Activity (Staphylococcus aureus [20]): Dose-dependent-effect; MIC (Klebsiella pneumoniae): 2 µg/mL; Activity (Staphylococcus aureus [21]): Active; Superior Efficacy Compared To Valnemulin Observed; Drug uptake [22]: Active; MIC (Pseudomonas aeruginosa): 4 µg/mL; Activity (Escherichia coli [23]): Dose-dependent-effect; MIC (Staphylococcus aureus [24]): 4 µg/mL

— ChEMBL document CHEMBL6096719, “Kidney Targeting Smart Antibiotic Discovery: Multimechanism Pleuromutilins for Pyelonephritis Therapy” (J Med Chem, 2025)
